Experimental data: patent US20240059703A1 (AMGEN INC., priority 2021, published 2024)

Key:
[1] = tested on: A549 (human lung carcinoma) cells; experiment: Cell Viability Assay (CellTiter-Glo), A549; assay type: cell-based
Description: MIA PaCa-2 (human pancreatic carcinoma; ATCC CRL-1420) or A549 (human lung carcinoma; ATCC CCL-185) cells were cultured in RPMI 1640 medium containing 10% fetal bovine serum and 1× penicillin/streptomycin/L-glutamine. Cells were seeded in 384-well plates at a density of 1.67E+04 cells/mL and incubated at 37° C., 5% CO2, overnight. Serially-diluted compound or DMSO was added to the cells, and plates were incubated at 37° C., 5% CO2 for 72 h. Cell viability was measured using a CellTiter-Glo® Luminescent Cell Viability Assay kit (Promega) according to the manufacturer's protocol. The luminescence signal of treated samples was normalized to DMSO control, and data were analyzed using a 4-parameter logistic model to calculate IC50 values.

KRAS G12C = KRAS G12C (Homo sapiens (Human), UniProt P01116, C118A/G12C); experiment: 2 h coupled exchange assay; assay type: biochemical; conditions: Avg 2 h Coupled exchange IC50, 2 h compound pre-incubation, SOS-mediated nucleotide exchange
Description: The term “2 h coupled exchange assay” or “20 h coupled exchange assay” as used herein refers to the assay described in the Section entitled “BIOLOGICAL EVALUATION.”

[2] = tested on: MIA PaCa-2 (human pancreatic carcinoma) cells; experiment: Cell Viability Assay (CellTiter-Glo), MIA PaCa-2; assay type: cell-based
Description: Serially-diluted compound or DMSO was added to the cells, and plates were incubated at 37° C., 5% CO2 for 72 h. Cell viability was measured using a CellTiter-Glo® Luminescent Cell Viability Assay kit (Promega) according to the manufacturer's protocol. The luminescence signal of treated samples was normalized to DMSO control, and data were analyzed using a 4-parameter logistic model to calculate IC50 values.

KRAS G12C, sequence (P01116 other isoform, or with tags, fused parts or gaps G12C/C118A): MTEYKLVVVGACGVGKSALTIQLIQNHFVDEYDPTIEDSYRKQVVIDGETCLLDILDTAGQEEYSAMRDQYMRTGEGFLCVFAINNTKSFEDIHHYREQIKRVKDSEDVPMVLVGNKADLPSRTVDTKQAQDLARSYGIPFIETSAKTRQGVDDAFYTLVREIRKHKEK

SMILES	IC50 ([1]; Homo sapiens, A549, 72 h)	IC50 (KRAS G12C)	IC50 ([2]; Homo sapiens, MIA PaCa-2, 72 h)	IC50 ([2]; 72 h)	IC50 ([1]; 72 h)
C=CC(=O)N1CC2(CCN(c3nc4c(c(-c5c(C)ccc6cnn(C)c56)c3C#N)COC(C)(C)C4)C2)C1 (single isomer, unassigned) [Example 13-60, (P)-4-(1,6-dimethyl-1H-indazol-7-yl)-7,7-dimethyl-2-(2-(2-propenoyl)-2,6-diazaspiro[3.4]octan-6-yl)-7,8-dihydro-5H-pyrano[4,3-b]pyridine-3-carbonitrile]	> 5000 nM	63 nM	146 nM		
C=CC(=O)N1CC2(CCN(c3nc4c(c(-c5cc(O)c(F)c6ccccc56)c3C#N)CC[C@@H]3C[C@H]43)C2)C1 (single isomer, unassigned) [Example 13-74]	> 5000 nM	76 nM		> 5000 nM	
C=CC(=O)N1CC2(CCN(c3nc4c(c(-c5cc(O)c(F)c6ccccc56)c3C#N)CC[C@@H]3C[C@H]43)C2)C1 (single isomer, unassigned) [Example 13-76]		40 nM		1190 nM	3260 nM
C=CC(=O)N1CC2(CCN(c3nc4c(c(-c5cc(O)c(F)c6ccccc56)c3C#N)COC(C)(C)C4)C2)C1 (single isomer, unassigned) [Example 13-78, (P)-4-(4-fluoro-3-hydroxy-1-naphthalenyl)-7,7-dimethyl-2-(2-(2-propenoyl)-2,6-diazaspiro[3.4]octan-6-yl)-7,8-dihydro-5H-pyrano[4,3-b]pyridine-3-carbonitrile]	> 5000 nM	76 nM	842 nM		
C=CC(=O)N1CC2(CCN(c3nc4c(c(-c5c(C)ccc6cnn(C)c56)c3C#N)C[C@H]3C[C@@H]4C3(C)C)C2)C1 (single isomer, unassigned) [Example 13-106]	> 5000 nM	78 nM	831 nM		
C=CC(=O)N1CC2(CCN(c3nc4c(c(-c5c(C)ccc6cnn(C)c56)c3C#N)C[C@H]3C[C@@H]4C3)C2)C1 (single isomer, unassigned) [Example 13-118]	> 5000 nM	72 nM	279 nM		
C=CC(=O)N1CC2(CCN(c3nc4c(c(-c5c(C)ccc6cnn(C)c56)c3C#N)CO[C@@H](C3CC3)C4)C2)C1 (single isomer, unassigned) [Example 13-122]	> 5000 nM	299 nM	1080 nM		
C=CC(=O)N1CC2(CCN(c3nc4c(c(-c5cc(O)ccc5C)c3C#N)COC(C)(C)C4)C2)C1 (single isomer, unassigned) [Example 13-128, 4-(5-hydroxy-2-methylphenyl)-7,7-dimethyl-2-(2-(2-propenoyl)-2,6-diazaspiro[3.4]octan-6-yl)-7,8-dihydro-5H-pyrano[4,3-b]pyridine-3-carbonitrile]	> 5000 nM	91 nM	> 5000 nM		
C=CC(=O)N1CC2(CCN(c3nc4c(c(-c5c(C)ccc6cnn(C)c56)c3C#N)[C@H]3C[C@@H](C4)C3)C2)C1 (single isomer, unassigned) [Example 13-133]	> 5000 nM	64 nM	200 nM		
C=CC(=O)N1CC2(CCN(c3nc4c(c(-c5c(C)ccc6cnn(C)c56)c3C#N)CC[C@@H]3C[C@H]43)C2)C1 (single isomer, unassigned) [Example 13-136, (6a,7a)-4-(1,6-dimethyl-1H-indazol-7-yl)-2-(2-(2-propenoyl)-2,6-diazaspiro[3.4]octan-6-yl)-6,6a,7,7a-tetrahydro-5H-cyclopropa[h]quinoline-3-carbonitrile]	> 5000 nM	78 nM	401 nM		
C=CC(=O)N1CC2(CCN(c3nc4c(c(-c5c(C)ccc6cnn(C)c56)c3C#N)CC[C@H]3C[C@@H]43)C2)C1 (single isomer, unassigned) [Example 13-137, (6a,7a)-4-(1,6-dimethyl-1H-indazol-7-yl)-2-(2-(2-propenoyl)-2,6-diazaspiro[3.4]octan-6-yl)-6,6a,7,7a-tetrahydro-5H-cyclopropa[h]quinoline-3-carbonitrile]	> 5000 nM	72 nM	468 nM		
C=CC(=O)N1CC2(CCN(c3nc4c(c(-c5c(C)ccc6cnn(C)c56)c3C#N)CCC(C)(C)C4)C2)C1 (single isomer, unassigned) [Example 13-150, 4-(1,6-dimethyl-1H-indazol-7-yl)-7,7-dimethyl-2-(2-(2-propenoyl)-2,6-diazaspiro[3.4]octan-6-yl)-5,6,7,8-tetrahydro-3-quinolinecarbonitrile]		2900 nM		4020 nM	6730 nM
C=CC(=O)N1CC2(CCN(c3nc4c(c(-c5c(N)c(Cl)cc(Cl)c5F)c3C#N)COC(C)(C)C4)C2)C1 (single isomer, unassigned) [Example 13-155, 4-(2-amino-3,5-dichloro-6-fluorophenyl)-7,7-dimethyl-2-(2-(2-propenoyl)-2,6-diazaspiro[3.4]octan-6-yl)-7,8-dihydro-5H-pyrano[4,3-b]pyridine-3-carbonitrile]	> 5000 nM	111 nM		93 nM	
C=CC(=O)N1CC2(CCN(c3nc4c(c(-c5c(N)c(Cl)cc(Cl)c5F)c3C#N)COC(C)(C)C4)C2)C1 (single isomer, unassigned) [Example 13-156, 4-(2-amino-3,5-dichloro-6-fluorophenyl)-7,7-dimethyl-2-(2-(2-propenoyl)-2,6-diazaspiro[3.4]octan-6-yl)-7,8-dihydro-5H-pyrano[4,3-b]pyridine-3-carbonitrile]		140000 nM		5920 nM	8160 nM

These reach a lower IC50 (KRAS G12C). Values come first.

IC50 ([1]; Homo sapiens, A549, 72 h)	IC50 (KRAS G12C)	IC50 ([2]; Homo sapiens, MIA PaCa-2, 72 h)	IC50 ([2]; 72 h)	IC50 ([1]; 72 h)	SMILES
> 5000 nM	26 nM	82 nM			C=CC(=O)N1CC2(CCN(c3nc4c(c(-c5cc(O)cc(Cl)c5C)c3C)COC(C)(C)C4)C2)C1 (single isomer, unassigned) [Example 12-43, (M)-1-(6-(4-(3-chloro-5-hydroxy-2-methylphenyl)-3,7,7-trimethyl-7,8-dihydro-5H-pyrano[4,3-b]pyridin-2-yl)-2,6-diazaspiro[3.4]octan-2-yl)prop-2-en-1-one]
> 5000 nM	26 nM	180 nM			C=CC(=O)N1CC2(CCN(c3nc4c(c(-c5c(C)ccc6cnn(C)c56)c3C#N)CC(C)(C)C4)C2)C1 (single isomer, unassigned) [Example 13-18, (P)-4-(1,6-dimethyl-1H-indazol-7-yl)-6,6-dimethyl-2-(2-(2-propenoyl)-2,6-diazaspiro[3.4]octan-6-yl)-6,7-dihydro-5H-cyclopenta[b]pyridine-3-carbonitrile]
> 5000 nM	16 nM	143 nM			C=CC(=O)N1CC2(CCN(c3nc4c(c(-c5cc(O)cc6ccccc56)c3C#N)COC(C)(C)C4)C2)C1 (single isomer, unassigned) [Example 13-43, (P)-4-(3-hydroxy-1-naphthalenyl)-7,7-dimethyl-2-(2-(2-propenoyl)-2,6-diazaspiro[3.4]octan-6-yl)-7,8-dihydro-5H-pyrano[4,3-b]pyridine-3-carbonitrile]
3230 nM	27 nM	217 nM			C=CC(=O)N1CC2(CCN(c3nc4c(c(-c5cc(O)cc6ccccc56)c3C#N)CC(C)(C)C4)C2)C1 (single isomer, unassigned) [Example 13-69, (P)-4-(3-hydroxy-1-naphthalenyl)-6,6-dimethyl-2-(2-(2-propenoyl)-2,6-diazaspiro[3.4]octan-6-yl)-6,7-dihydro-5H-cyclopenta[b]pyridine-3-carbonitrile]
> 5000 nM	13 nM	9 nM			C=CC(=O)N1CC2(CCN(c3nc4c(c(-c5c(C)c(C)cc6cnn(C)c56)c3C#N)COC(C)(C)C4)C2)C1 (single isomer, unassigned) [Example 13-92, (P)-7,7-dimethyl-2-(2-(2-propenoyl)-2,6-diazaspiro[3.4]octan-6-yl)-4-(1,5,6-trimethyl-1H-indazol-7-yl)-7,8-dihydro-5H-pyrano[4,3-b]pyridine-3-carbonitrile]
> 5000 nM	12 nM	9 nM			C=CC(=O)N1CC2(CCN(c3nc4c(c(-c5c(C)ccc6[nH]ncc56)c3C#N)C[C@H]3C[C@@H]4C3(C)C)C2)C1 (single isomer, unassigned) [Example 13-115]
> 5000 nM	29 nM	> 5000 nM			C=CC(=O)N1CC2(CCN(c3nc4c(c(-c5cc(O)ccc5C)c3C#N)C[C@H]3C[C@@H]4C3)C2)C1 (single isomer, unassigned) [Example 13-126]
> 5000 nM	13 nM	21 nM			C=CC(=O)N1CC2(CCN(c3nc4c(c(-c5cc(O)cc6ccccc56)c3C#N)C[C@H]3C[C@@H]4C3(C)C)C2)C1 (single isomer, unassigned) [Example 13-129]
> 5000 nM	31 nM		208 nM		C=CC(=O)N1CC2(CCN(c3nc4c(c(-c5c(C)ccc6cnn(C)c56)c3C#N)CCC(C)(C)C4)C2)C1 (single isomer, unassigned) [Example 13-145, 4-(1,6-dimethyl-1H-indazol-7-yl)-7,7-dimethyl-2-(2-(2-propenoyl)-2,6-diazaspiro[3.4]octan-6-yl)-5,6,7,8-tetrahydro-3-quinolinecarbonitrile]
